Earlier results in patent US5296224A, “Kava-kava extract, process for the production thereof and use thereof” (Dr. Wilmar Schwabe GmbH & Co., priority 1990, dated 1994).

Key:
skin = conditions: Shulgin 1973
[1] = administered as pure substance; Kretschmer, MMW 4/1970
[2] = 21° C.

skin-specific secondary effects (skin)	SMILES	effective daily dose [1]	maximum solubility in water [2] [mg/100 ml water]
skin-specific secondary effects	COc1ccc(/C=C/C(=O)c2c(O)cc(OC)cc2OC)cc1 [flavokawin A]	–	–
skin-specific secondary effects	COc1cc(O)c(C(=O)/C=C/c2ccccc2)c(OC)c1 [flavokawin B]	–	–
–	COC1=CC(=O)O[C@@H](/C=C/c2ccccc2)C1 [kawain]	about 200 mg	2.2
